Test results reported in paper PMC5428418, “Differential expression of chemosensory-protein genes in midguts in response to diet of Spodoptera litura” (Scientific Reports, 2017).
Where two headings read alike, the source gives them in different places.

How the values were obtained:
[1] = target: recombinant SlitCSP8 (Spodoptera litura, UniProt A0A0P0EUM0); experiment: Fluorescence competitive binding assay (1-NPN displacement), SlitCSP8; details: for IC50: read-out: IC50 SlitCSP8; for IC50 / IC50 SlitCSP8: competitor's concentration halving the initial fluorescence, protein 2 μM, ligand 0 to 20 μM, 1-NPN probe; for Kd: read-out: Kd SlitCSP8; for Kd / Kd SlitCSP8: dissociation constant of the competitor calculated from IC50: KD = [IC50]/(1 + [1-NPN]/K1-NPN); for binding affinity to SlitCSP8 (in words): competitive binding with 1-NPN
Protocol: The fluorescence spectra were recorded on an F-4500 FL Fluorescence Spectrophotometer (HITACHI) in a 1 cm light path quartz cuvette at 23 °C. The slit width used for excitation and emission was 5 nm. The compounds used to investigate the binding abilities of SlitCSPs were purchased from Sigma-Aldrich with the highest purity and stored as specified instruction by the manufacturer. […] The fluorescent probe N-phenyl-1-naphthylamine (1 − NPN) and all ligands used in competition experiments were dissolved in HPLC purity grade methanol. […] And then, 2 μM of protein was added and titrated with aliquots of 1 mM 1 − NPN to final concentrations of 2 to 20 μM. […] All values reported were obtained from three independent measurements. The corresponding to the maximum fluorescence emission was plotted against the ligand concentrations for the determination of the binding constants. The curves were linearized by Scatchard plots.

[2] = target: recombinant SlitCSP11 (Spodoptera litura, UniProt A0A0P0EM27); assay type: binding; details: for IC50 SlitCSP11: competitor's concentration halving the initial fluorescence, protein 2 μM, ligand 0 to 20 μM, 1-NPN probe; for Kd SlitCSP11: dissociation constant of the competitor calculated from IC50: KD = [IC50]/(1 + [1-NPN]/K1-NPN); for binding affinity to SlitCSP11 (in words): competitive binding with 1-NPN
Text: (§1) The curves were linearized by Scatchard plots.

[3] = target: recombinant SlitCSP3 (Spodoptera litura, UniProt A0A9J7EMU8); assay type: binding; details: for binding affinity to SlitCSP3 (in words): competitive binding with 1-NPN
Text: as §1

[4] = competitor's concentration halving the initial fluorescence, protein 2 μM, ligand 0 to 20 μM, 1-NPN probe
[5] = dissociation constant of the competitor calculated from IC50: KD = [IC50]/(1 + [1-NPN]/K1-NPN)

recombinant SlitCSP8, sequence (A0A0P0EUM0 18-128 with tags or gaps limits assumed): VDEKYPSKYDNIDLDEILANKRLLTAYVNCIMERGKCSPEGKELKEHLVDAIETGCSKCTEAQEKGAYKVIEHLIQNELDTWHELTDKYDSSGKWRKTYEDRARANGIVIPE
recombinant SlitCSP11, sequence (A0A0P0EM27 entry or part of it): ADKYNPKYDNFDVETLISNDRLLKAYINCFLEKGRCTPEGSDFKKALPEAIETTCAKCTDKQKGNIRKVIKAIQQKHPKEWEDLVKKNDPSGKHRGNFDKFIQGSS
recombinant SlitCSP3, sequence (A0A9J7EMU8 entry or part of it): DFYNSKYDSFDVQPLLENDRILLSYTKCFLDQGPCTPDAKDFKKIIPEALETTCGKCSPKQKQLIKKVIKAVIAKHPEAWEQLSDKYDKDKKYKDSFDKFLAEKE

Structure (SMILES)	IC50 SlitCSP11 [2]	Kd SlitCSP11 [2]	IC50 SlitCSP8 [1]	Kd SlitCSP8 [1]	IC50 SlitCSP3 [3, 4]	Kd SlitCSP3 [3, 5]	binding affinity to SlitCSP8 (in words) [1]	other results
O=Cc1ccccc1 [Benzaldehyde]	–	–	–	–	–	–	–	IC50 [1]: 5.26 µM; Kd [1]: 7.47 µM
S=C=NCCc1ccccc1 [Phenethyl isothiocyanate]	–	–	–	–	–	–	–	IC50 [1]: 4.34 µM; Kd [1]: 6.17 µM
CCC/C=C/C(=O)O [trans-2-Hexenoic acid]	u.d	u.d	–	–	–	–	–	–
c1ccncc1 [Pyridine]	–	–	u.d	u.d	–	–	–	IC50 SlitCSP3 [3]: u.d; Kd SlitCSP3 [3]: u.d
O=Cc1ccco1 [Furan-2-carboxaldehyde]	–	–	u.d	–	u.d	u.d	–	–
CCCCCCCCCC#N [Decanenitrile]	u.d	u.d	u.d	u.d	u.d	u.d	poor affinities	binding affinity to SlitCSP11 (in words) [2]: poor affinities; binding affinity to SlitCSP3 (in words) [3]: poor affinities
CCCCN=C=S [Butyl isothiocyanate]	–	–	u.d	u.d	u.d	u.d	–	–
O=Cc1ccc(CO)o1 [5-(Hydroxymethyl)furfural]	u.d	u.d	u.d	u.d	–	–	–	–
C=Cc1ccccc1 [Styrene]	–	–	u.d	u.d	u.d	u.d	–	–
CCc1ccco1 [2-Ethylfuran]	u.d	u.d	u.d	u.d	u.d	u.d	poor affinities	binding affinity to SlitCSP11 (in words) [2]: poor affinities; binding affinity to SlitCSP3 (in words) [3]: poor affinities
CCCCCC=O [Hexanal]	u.d	u.d	–	–	u.d	–	–	binding affinity to SlitCSP11 (in words) [2]: poor affinities; Kd SlitCSP3 [3]: u.d; binding affinity to SlitCSP3 (in words) [3]: poor affinities
CCCCCCCCCCCCCCCC(=O)O [Hexadecanoic acid]	–	–	u.d	u.d	u.d	u.d	–	–
OCc1ccccc1 [Benzyl alcohol]	–	–	–	–	u.d	u.d	at low concentrations	–
CC/C=C\CCO [cis-3-Hexen-1-ol]	u.d	u.d	–	–	u.d	u.d	at low concentrations	–
CC1CCC(C(C)C)C(O)C1 (stereo not shown) [Menthol]	–	–	ud	u.d	–	–	–	–
N#Cc1ccccc1 [Benzonitrile]	u.d	u.d	u.d	u.d	u.d	u.d	poor affinities	binding affinity to SlitCSP11 (in words) [2]: poor affinities; binding affinity to SlitCSP3 (in words) [3]: poor affinities
NC(=O)c1ccncc1 [Isonicotinamide]	–	–	–	–	–	–	at low concentrations	–
